From the supplement of paper PMC8882468

How the values were obtained:
Experiment in all cases: CTG-3D luminescence at 96 h relative to day-0 seeding control (ratio to day 0); higher = more growth / less cytotoxicity; PDxO 3D drug screen, 96 h, CTG-3D normalised to day-0 seeding control.
HCI-002 = tested on: HCI-002 (organoid from a triple-negative breast cancer xenograft)
HCI-010 = tested on: HCI-010 (organoid from a breast cancer xenograft)
HCI-011.E2 = tested on: HCI-011.E2 (organoid from an ER-positive breast cancer xenograft)
HCI-017.E2 = tested on: HCI-017.E2 (organoid from an ER-positive breast cancer xenograft)
HCI-025 = tested on: HCI-025 (organoid from a breast cancer xenograft)

CCc1c2c(nc3ccc(O)cc13)-c1cc3c(c(=O)n1C2)COC(=O)[C@]3(O)CC [SN-38]
CTG-3D luminescence at 96 h
Settings	12.5 pM	0.00025 µM	0.005 µM	0.1 µM	1 µM	10 µM	100 µM	625 fM
HCI-002, days in culture: 62	3.11	2.44	1.01	0.53	0.117	0.0334	0.0217	3.05
HCI-002, days in culture: 82	3.04	3.05	1.13	0.606	0.265	0.0317	0.0208	3.43
HCI-002, days in culture: 91	3.6	2.86	0.92	0.659	0.289	0.0365	0.0217	3.54
HCI-002, days in culture: 191	2.67	2.76	1.31	0.721	0.356	0.0269	0.0208	2.87
HCI-002, days in culture: 209	2.21	2.28	0.962	0.556	0.155	0.0238	0.0205	2.49
HCI-002, days in culture: 227	5.46	4.33	1.89	1.13	0.464	0.0608	0.038	5.49
HCI-010, days in culture: 52	2.37	2.36	0.389	0.0916	0.0768	0.267	0.243	2.19
HCI-010, days in culture: 65	1.69	1.69	0.379	0.115	0.0812	0.317	0.334	0.54
HCI-010, days in culture: 103	3.57	3.27	0.516	0.116	0.145	0.599	0.576	2.96
HCI-011.E2, days in culture: 74	2.34	1.84	2.09	1.85	1.06	0.399	0.23	2.21
HCI-017.E2, days in culture: 85	2.43	2.66	1.7	2.32	1.23	0.584	0.428	2.19
HCI-025, days in culture: 172	3.42	1.7	2.12	0.486	0.295	0.0768	0.0418	2.35
HCI-025, days in culture: 209	1.97	2.36	1.12	0.295	0.181	0.0722	0.0384	1.53
HCI-025, days in culture: 218	1.5	1.73	0.75	0.244	0.0898	0.0616	0.0407	1.53

CTG-3D luminescence at 96 h
Settings	12.5 pM	0.00025 µM	0.005 µM	0.1 µM	1 µM	10 µM	100 µM	625 fM
HCI-011.E2	1.25	1.54	1.4	1.48	0.834	0.362	0.218	1.46
HCI-017.E2	1.58	1.73	1.5	1.44	1.16	0.47	0.407	1.77
